Experimental data taken from US10392368B2, “Pyrazolo and triazolo bicyclic compounds as JAK kinase inhibitors” (THERAVANCE BIOPHARMA R&D IP, LLC, priority 2017, dated 2019).

Columns and labels:
JAK1 = target: T1, JAK1 (Homo sapiens, UniProt P23458); assay: Biochemical JAK1 kinase assay (LanthaScreen); conditions: for Ki: read-out: JAK 1 (pKi) (converted)
T1 construct: GST; purchased Life Technologies
How it was run: (§1)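 Compounds were preincubated with the GST-tagged kinase and GFP-labelled STAT1 peptide for one hour before ATP initiated a one-hour reaction at ambient temperature. Phosphorylation was quantified by TR-FRET with a Tb-labelled pTyr701 antibody. Ki values were derived from IC50 using Cheng-Prusoff.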

JAK2 = target: T2, JAK2 (Homo sapiens, UniProt O60674); assay: Biochemical JAK2 kinase assay (LanthaScreen); conditions: for Ki: read-out: JAK 2 (pKi) (converted)
T2 construct: GST; purchased Life Technologies
T2 sequence (O60674 whole entry): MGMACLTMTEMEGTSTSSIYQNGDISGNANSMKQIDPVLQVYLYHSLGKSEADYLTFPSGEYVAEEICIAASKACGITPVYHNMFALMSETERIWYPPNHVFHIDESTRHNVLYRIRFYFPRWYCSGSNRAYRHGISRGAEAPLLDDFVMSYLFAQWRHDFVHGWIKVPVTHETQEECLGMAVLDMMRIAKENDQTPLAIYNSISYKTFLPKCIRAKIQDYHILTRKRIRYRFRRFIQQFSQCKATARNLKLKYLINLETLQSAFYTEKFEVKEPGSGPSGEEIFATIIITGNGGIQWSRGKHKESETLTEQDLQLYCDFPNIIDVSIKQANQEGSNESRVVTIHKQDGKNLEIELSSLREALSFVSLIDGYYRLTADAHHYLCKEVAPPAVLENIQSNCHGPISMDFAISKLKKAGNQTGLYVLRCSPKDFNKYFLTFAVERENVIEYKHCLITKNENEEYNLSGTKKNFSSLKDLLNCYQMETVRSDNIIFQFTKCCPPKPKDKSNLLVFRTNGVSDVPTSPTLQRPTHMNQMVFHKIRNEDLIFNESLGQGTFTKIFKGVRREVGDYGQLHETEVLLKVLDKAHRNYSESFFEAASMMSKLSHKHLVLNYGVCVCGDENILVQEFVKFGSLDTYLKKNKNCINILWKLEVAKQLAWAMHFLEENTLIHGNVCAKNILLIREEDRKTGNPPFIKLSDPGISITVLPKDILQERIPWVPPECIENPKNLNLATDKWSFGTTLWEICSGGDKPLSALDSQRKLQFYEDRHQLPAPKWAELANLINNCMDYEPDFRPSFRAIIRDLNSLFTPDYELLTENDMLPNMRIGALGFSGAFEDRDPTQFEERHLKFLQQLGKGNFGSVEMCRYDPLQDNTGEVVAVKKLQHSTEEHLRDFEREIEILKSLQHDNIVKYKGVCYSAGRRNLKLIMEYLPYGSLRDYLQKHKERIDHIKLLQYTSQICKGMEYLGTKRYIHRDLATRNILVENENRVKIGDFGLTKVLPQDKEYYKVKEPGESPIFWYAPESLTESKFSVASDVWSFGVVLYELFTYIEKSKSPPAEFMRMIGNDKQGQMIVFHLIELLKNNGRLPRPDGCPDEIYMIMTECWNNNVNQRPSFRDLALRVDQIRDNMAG
How it was run: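 GST-tagged recombinant JAK2 pre-incubated 1 h at ambient temperature with compound and GFP-STAT1 peptide in HEPES pH 7.5/MgCl2 buffer, then ATP added for a 1 h reaction with 1% DMSO. TR-FRET read after EDTA and Tb-anti-pSTAT1 (pTyr701) addition; IC50 from 4-parameter fit, converted to pKi by Cheng-Prusoff.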

Tyk2 = target: T3, Tyk2 (Homo sapiens, UniProt P29597); assay: Biochemical Tyk2 kinase assay (LanthaScreen); conditions: for Ki: read-out: Tyk 2 (pKi) (converted)
T3 construct: GST; purchased Life Technologies
T3 sequence (P29597 whole entry): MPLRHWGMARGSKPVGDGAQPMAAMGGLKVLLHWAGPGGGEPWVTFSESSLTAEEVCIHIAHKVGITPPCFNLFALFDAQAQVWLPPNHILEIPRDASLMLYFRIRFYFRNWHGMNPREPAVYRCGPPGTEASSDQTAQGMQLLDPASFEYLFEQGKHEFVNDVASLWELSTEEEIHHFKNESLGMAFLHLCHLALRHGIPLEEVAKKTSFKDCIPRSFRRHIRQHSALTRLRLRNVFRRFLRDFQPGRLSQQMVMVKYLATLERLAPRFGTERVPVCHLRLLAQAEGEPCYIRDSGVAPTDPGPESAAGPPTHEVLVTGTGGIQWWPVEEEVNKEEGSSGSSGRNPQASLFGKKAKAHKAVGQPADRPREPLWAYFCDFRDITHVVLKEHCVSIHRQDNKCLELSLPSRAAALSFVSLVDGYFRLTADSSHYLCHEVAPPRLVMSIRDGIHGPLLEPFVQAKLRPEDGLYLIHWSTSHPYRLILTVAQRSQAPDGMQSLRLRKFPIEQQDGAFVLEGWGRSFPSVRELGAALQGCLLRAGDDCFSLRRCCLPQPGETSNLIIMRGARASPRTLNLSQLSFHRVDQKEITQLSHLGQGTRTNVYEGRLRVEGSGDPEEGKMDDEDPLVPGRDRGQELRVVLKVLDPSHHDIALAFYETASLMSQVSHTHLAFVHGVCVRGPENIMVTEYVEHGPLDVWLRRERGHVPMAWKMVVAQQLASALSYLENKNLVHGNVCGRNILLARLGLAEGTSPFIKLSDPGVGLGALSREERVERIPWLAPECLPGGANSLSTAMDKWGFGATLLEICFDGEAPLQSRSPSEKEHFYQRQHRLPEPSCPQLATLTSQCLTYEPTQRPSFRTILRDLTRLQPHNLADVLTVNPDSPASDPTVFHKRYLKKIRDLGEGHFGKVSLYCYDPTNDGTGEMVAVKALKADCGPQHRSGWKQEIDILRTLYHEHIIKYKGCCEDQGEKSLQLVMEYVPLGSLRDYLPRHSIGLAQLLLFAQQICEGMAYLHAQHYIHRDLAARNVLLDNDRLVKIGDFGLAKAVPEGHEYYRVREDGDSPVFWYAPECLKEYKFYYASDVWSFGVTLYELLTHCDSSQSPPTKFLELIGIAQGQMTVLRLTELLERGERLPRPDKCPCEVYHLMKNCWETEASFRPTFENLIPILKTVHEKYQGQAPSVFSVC
How it was run: as §1

[1] = test system: IL-2 stimulated pSTAT5 in Tall-1 T cells; assay: Cellular JAK3 potency assay: inhibition of IL-2 stimulated pSTAT5 in Tall-1 T cells; type: cell-based, human; conditions: for Tall-1 (pIC50): IL-2 stimulated pSTAT5 in Tall-1 T cells; for IC50: Homo sapiens, TALL-1, IL-2 stimulated pSTAT5 in Tall-1 T cells, read-out: Tall-1 (pIC50) (converted)
How it was run: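 Tall-1 human T cells (45,000/well) in phenol red-free DMEM with 10% FBS were preincubated with compound 1 h at 37 °C, then stimulated with IL-2 (final 300 ng/ml) for 30 min. Lysate pSTAT5 read by AlphaLisa; IC50 from inhibition curves, reported as pIC50 (mean±SD).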

JAK3 = target: T4, JAK3 (Homo sapiens, UniProt P52333); assay: Biochemical JAK3 kinase assay (LanthaScreen); set-up: GST; purchased Life Technologies; conditions: for JAK3 (pKi)-JAK1 (pKi): selectivity: difference of pKi JAK3 and pKi JAK1; for Ki: read-out: JAK 3 (pKi) (converted)
T4 sequence (P52333 1-1124): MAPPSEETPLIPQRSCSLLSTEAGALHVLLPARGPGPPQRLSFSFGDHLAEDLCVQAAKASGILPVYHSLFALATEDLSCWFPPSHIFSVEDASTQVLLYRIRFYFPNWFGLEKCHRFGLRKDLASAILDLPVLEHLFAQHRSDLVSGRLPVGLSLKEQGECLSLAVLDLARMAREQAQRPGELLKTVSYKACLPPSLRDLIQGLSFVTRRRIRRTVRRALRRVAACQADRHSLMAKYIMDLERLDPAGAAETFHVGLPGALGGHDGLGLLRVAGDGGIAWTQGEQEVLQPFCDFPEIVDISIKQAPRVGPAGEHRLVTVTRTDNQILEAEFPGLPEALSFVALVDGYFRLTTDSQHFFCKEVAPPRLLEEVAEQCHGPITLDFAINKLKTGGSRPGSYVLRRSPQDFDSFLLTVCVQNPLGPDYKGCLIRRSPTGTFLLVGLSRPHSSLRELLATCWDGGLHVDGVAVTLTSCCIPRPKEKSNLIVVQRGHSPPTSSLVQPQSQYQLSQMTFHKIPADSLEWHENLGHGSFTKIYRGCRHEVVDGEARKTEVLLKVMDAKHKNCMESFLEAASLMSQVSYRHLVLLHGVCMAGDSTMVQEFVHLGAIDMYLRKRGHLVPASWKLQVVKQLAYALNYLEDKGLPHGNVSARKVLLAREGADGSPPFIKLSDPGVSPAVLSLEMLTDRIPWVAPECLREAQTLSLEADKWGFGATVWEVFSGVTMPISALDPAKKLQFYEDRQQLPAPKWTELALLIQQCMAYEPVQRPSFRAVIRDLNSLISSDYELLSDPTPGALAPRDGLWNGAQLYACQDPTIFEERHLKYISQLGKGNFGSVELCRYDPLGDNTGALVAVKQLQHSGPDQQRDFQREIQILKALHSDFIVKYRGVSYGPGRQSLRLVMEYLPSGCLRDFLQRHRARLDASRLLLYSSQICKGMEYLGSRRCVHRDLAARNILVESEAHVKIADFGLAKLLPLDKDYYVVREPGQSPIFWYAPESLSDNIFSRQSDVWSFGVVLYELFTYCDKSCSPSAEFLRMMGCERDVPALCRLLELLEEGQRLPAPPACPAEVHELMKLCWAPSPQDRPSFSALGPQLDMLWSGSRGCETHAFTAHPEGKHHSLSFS
How it was run: as §1

T1 sequence (P23458 whole entry): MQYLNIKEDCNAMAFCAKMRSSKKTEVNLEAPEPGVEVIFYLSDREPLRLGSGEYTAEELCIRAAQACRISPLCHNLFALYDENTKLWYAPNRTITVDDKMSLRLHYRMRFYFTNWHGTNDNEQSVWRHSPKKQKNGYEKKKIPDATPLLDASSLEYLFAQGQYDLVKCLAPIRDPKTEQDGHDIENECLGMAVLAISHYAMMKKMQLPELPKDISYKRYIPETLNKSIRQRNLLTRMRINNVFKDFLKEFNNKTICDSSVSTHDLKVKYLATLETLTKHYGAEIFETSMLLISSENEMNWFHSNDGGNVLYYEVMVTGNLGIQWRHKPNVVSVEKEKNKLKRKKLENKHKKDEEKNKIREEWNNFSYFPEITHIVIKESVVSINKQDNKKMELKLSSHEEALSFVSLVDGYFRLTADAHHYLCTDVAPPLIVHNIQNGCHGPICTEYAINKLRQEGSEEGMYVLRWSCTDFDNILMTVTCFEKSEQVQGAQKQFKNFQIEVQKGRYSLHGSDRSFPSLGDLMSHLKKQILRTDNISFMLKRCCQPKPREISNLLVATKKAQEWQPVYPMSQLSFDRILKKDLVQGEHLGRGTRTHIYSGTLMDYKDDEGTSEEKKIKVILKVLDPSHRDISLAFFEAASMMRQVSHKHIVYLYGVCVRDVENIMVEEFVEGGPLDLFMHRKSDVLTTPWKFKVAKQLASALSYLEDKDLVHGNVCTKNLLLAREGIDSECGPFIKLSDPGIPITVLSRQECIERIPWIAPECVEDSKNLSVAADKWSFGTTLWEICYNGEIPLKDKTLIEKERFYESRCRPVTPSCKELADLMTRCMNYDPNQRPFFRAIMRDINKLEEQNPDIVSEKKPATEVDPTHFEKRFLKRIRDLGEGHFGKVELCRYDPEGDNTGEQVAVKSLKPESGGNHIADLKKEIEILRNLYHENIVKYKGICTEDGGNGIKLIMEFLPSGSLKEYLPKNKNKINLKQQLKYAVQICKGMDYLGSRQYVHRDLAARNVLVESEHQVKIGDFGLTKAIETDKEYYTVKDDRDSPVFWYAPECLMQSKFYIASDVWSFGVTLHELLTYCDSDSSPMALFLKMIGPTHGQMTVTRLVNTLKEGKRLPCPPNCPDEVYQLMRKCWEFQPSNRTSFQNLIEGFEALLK

Row | Structure (SMILES) | JAK 1 (pKi) (JAK1) | JAK 2 (pKi) (JAK2) | Tyk 2 (pKi) (Tyk2) | Tall-1 (pIC50) [1] | JAK 3 (pKi) (JAK3) | JAK3 (pKi)-JAK1 (pKi) (JAK3) | Ki (JAK1) [nM] | Ki (JAK2) [nM] | Ki (Tyk2) [nM] | IC50 [1] [nM] | Ki (JAK3) [nM]
1 | CCC1(COc2nc(-c3ccc(O)c(F)c3)cc3[nH]ncc23)CN(C(=O)/C=C/CN(C)C)C1 [Compound 3-100] | E (a pKi value of 7 or below (Ki of 100 nM or above)) | E (a pKi value of 7 or below (Ki of 100 nM or above)) | E (a pKi value of 7 or below (Ki of 100 nM or above)) | A (a pIC50 value≥7.5 (IC50≤32 nM)) | B (a pKi value between 9 and 10 (Ki between 1 nM and 0.1 nM)) | A (a value of 3 or above) | – | – | – | – | –
2 | C=CC(=O)N1CC(CC)(COc2nc(-c3ccc(O)c(F)c3)cc3[nH]ncc23)C1 [Compound 3-101] | E (a pKi value of 7 or below (Ki of 100 nM or above)) | D (a pKi value between 7 and 8 (Ki between 100 nM and 10 nM)) | E (a pKi value of 7 or below (Ki of 100 nM or above)) | A (a pIC50 value≥7.5 (IC50≤32 nM)) | A (a pKi value≥10 (Ki≤0.1 nM)) | A (a value of 3 or above) | – | – | – | – | –
3 | CN(C)C/C=C/C(=O)N1CC(C#N)(COc2nc(-c3ccc(O)cc3)cc3[nH]ncc23)C1 [Compound 3-102] | – | – | – | – | – | A (a value of 3 or above) | > 100 | > 100 | > 100 | 31.6 to 200 | 0.1 to 1
4 | C=CC(=O)N1CC(C#N)(COc2nc(-c3ccc(O)cc3)cc3[nH]ncc23)C1 [Compound 3-103] | – | – | – | – | – | A (a value of 3 or above) | > 100 | 10 to 100 | > 100 | < 31.6 | < 0.1
5 | C=CC(=O)N1CC(C#N)(COc2nc(-c3ccc(O)cc3)nc3[nH]ncc23)C1 [Compound 3-104] | – | – | – | – | – | A (a value of 3 or above) | > 100 | > 100 | > 100 | < 31.6 | < 0.1
6 | CN(C)C/C=C/C(=O)N1CC(C#N)(COc2nc(-c3ccc(O)c(F)c3)cc3[nH]ncc23)C1 [Compound 3-106] | E (a pKi value of 7 or below (Ki of 100 nM or above)) | E (a pKi value of 7 or below (Ki of 100 nM or above)) | E (a pKi value of 7 or below (Ki of 100 nM or above)) | B (a pIC50 value between 6.7 (included) and 7.5 (IC50 between 200 nM and 32 nM)) | B (a pKi value between 9 and 10 (Ki between 1 nM and 0.1 nM)) | A (a value of 3 or above) | – | – | – | – | –
7 | C=CC(=O)N1CC(C#N)(COc2nc(-c3ccc(O)c(Cl)c3)cc3[nH]ncc23)C1 [Compound 3-107] | E (a pKi value of 7 or below (Ki of 100 nM or above)) | E (a pKi value of 7 or below (Ki of 100 nM or above)) | E (a pKi value of 7 or below (Ki of 100 nM or above)) | A (a pIC50 value≥7.5 (IC50≤32 nM)) | A (a pKi value≥10 (Ki≤0.1 nM)) | A (a value of 3 or above) | – | – | – | – | –
8 | C=CC(=O)N1CC(C#N)(COc2nc(-c3ccc(O)c(F)c3)cc3[nH]ncc23)C1 [Compound 3-108] | E (a pKi value of 7 or below (Ki of 100 nM or above)) | D (a pKi value between 7 and 8 (Ki between 100 nM and 10 nM)) | E (a pKi value of 7 or below (Ki of 100 nM or above)) | A (a pIC50 value≥7.5 (IC50≤32 nM)) | A (a pKi value≥10 (Ki≤0.1 nM)) | A (a value of 3 or above) | – | – | – | – | –
9 | C=CC(=O)N1CC(C#N)(COc2nc(-c3ccc(O)c(Cl)c3)nc3[nH]ncc23)C1 [Compound 3-109] | – | – | – | – | – | A (a value of 3 or above) | > 100 | > 100 | > 100 | 31.6 to 200 | 0.1 to 1
10 | C=CC(=O)N1CC(C#N)(COc2nc(-c3ccc(O)c(F)c3)nc3[nH]ncc23)C1 [Compound 3-110] | – | – | – | – | – | A (a value of 3 or above) | > 100 | > 100 | > 100 | 31.6 to 200 | 0.1 to 1
11 | C=CC(=O)N1CC(C#N)(COc2cc(-c3ccc(O)c(F)c3)nc3[nH]ncc23)C1 [Compound 3-111] | E (a pKi value of 7 or below (Ki of 100 nM or above)) | E (a pKi value of 7 or below (Ki of 100 nM or above)) | E (a pKi value of 7 or below (Ki of 100 nM or above)) | C (a pIC50 value between 6 and 6.7 (IC50 between 1 μM and 200 nM)) | B (a pKi value between 9 and 10 (Ki between 1 nM and 0.1 nM)) | A (a value of 3 or above) | – | – | – | – | –
12 | C=C(CN(C)C)C(=O)N1CC(COc2nc(-c3ccc(O)cc3)nc3[nH]ncc23)C1 [Compound 3-112] | – | – | – | – | – | A (a value of 3 or above) | > 100 | > 100 | > 100 | 31.6 to 200 | 0.1 to 1
13 | C=CC(=O)N1CC(COc2cc(-c3ccc(O)cc3)cc3[nH]ncc23)C1C (stereo not drawn) [Compound 3-114] | E (a pKi value of 7 or below (Ki of 100 nM or above)) | E (a pKi value of 7 or below (Ki of 100 nM or above)) | E (a pKi value of 7 or below (Ki of 100 nM or above)) | A (a pIC50 value≥7.5 (IC50≤32 nM)) | B (a pKi value between 9 and 10 (Ki between 1 nM and 0.1 nM)) | A (a value of 3 or above) | – | – | – | – | –
14 | CN1CCC[C@H]1/C=C/C(=O)N1CC(COc2cc(-c3ccc(O)cc3)cc3[nH]ncc23)C1 [Compound 3-115] | – | – | – | – | – | A (a value of 3 or above) | > 100 | 0.1 to 1 | > 100 | 31.6 to 200 | 0.1 to 1
15 | CN(C/C=C/C(=O)N1CC(COc2cc(-c3ccc(O)cc3)cc3[nH]ncc23)C1)C(C)(C)C [Compound 3-116] | – | – | – | – | – | B (a value of 2.3 to 3) | > 100 | 10 to 100 | > 100 | 31.6 to 200 | 0.1 to 1
16 | CN(C/C=C/C(=O)N1CC(COc2cc(-c3ccc(O)cc3)cc3[nH]ncc23)C1)C1CCC1 [Compound 3-117] | – | – | – | – | – | B (a value of 2.3 to 3) | > 100 | 10 to 100 | > 100 | 31.6 to 200 | 0.1 to 1
17 | CC(C)CN(C)C/C=C/C(=O)N1CC(COc2cc(-c3ccc(O)cc3)cc3[nH]ncc23)C1 [Compound 3-118] | – | – | – | – | – | A (a value of 3 or above) | > 100 | > 100 | > 100 | < 31.6 | 0.1 to 1
18 | COCCN(C)C/C=C/C(=O)N1CC(COc2cc(-c3ccc(O)cc3)cc3[nH]ncc23)C1 [Compound 3-119] | – | – | – | – | – | B (a value of 2.3 to 3) | > 100 | 10 to 100 | > 100 | 31.6 to 200 | < 0.1
19 | COCCN(C/C=C/C(=O)N1CC(COc2cc(-c3ccc(O)cc3)cc3[nH]ncc23)C1)CCOC [Compound 3-120] | – | – | – | – | – | A (a value of 3 or above) | > 100 | 10 to 100 | > 100 | 31.6 to 200 | < 0.1
